The values that follow come from PubChem BioAssay (NCI).

Molecules are shown by their SMILES.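 These data come from cells grown in 96-well plates and exposed to compound for 48 hours at five concentrations. GI50 marks 50% less growth. TGI: total growth inhibition.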 Where only a bound is given, the exact number is not on record here.

Among the test systems are MCF7 breast; MDA-MB-231 breast; NCI/ADR-RES ovarian; T-47D breast; MDA-N.
What all share (assay): NCI-60 cell line screen, 48 h

Consider `COc1ccc(CNc2c3ccccc3nc3ccc(OC)cc23)cc1`, for which the GI50 is 2.11 µM in the experiment with MCF7 breast, 1.9 µM in the experiment with MDA-MB-231 breast, 2.22 µM in the experiment on NCI/ADR-RES ovarian and 3.54 µM in the experiment with T-47D breast. In addition, the TGI in the experiment with MCF7 breast was 5.71 µM; in the experiment with MDA-MB-231 breast, 4.69 µM; in the experiment on NCI/ADR-RES ovarian, 7.52 µM; in the experiment with T-47D breast, 18.9 µM.

With `COc1cc2c(Oc3ccc4[nH]c(C)cc4c3F)ccnc2cc1OCC1(N)CC1`, the GI50 in the experiment with MCF7 breast was 0.484 µM; in the experiment with MDA-MB-231 breast, 1.8 µM; in the experiment with NCI/ADR-RES ovarian, 2.31 µM; in the experiment on T-47D breast it was 3.64 µM. Moreover, the TGI is 24.6 µM with MCF7 breast, 4.61 µM with MDA-MB-231 breast, above 100 µM in the experiment with NCI/ADR-RES ovarian and 28.5 µM in the experiment with T-47D breast.

Take `CN1CCCCCC(=N\O)/C(=N/O)CCCCC1`: the TGI in the experiment on MCF7 breast, in the experiment with MDA-MB-231 breast, in the experiment with MDA-N and in the experiment with NCI/ADR-RES ovarian was above 100 µM throughout.

Turning to `O=c1[nH]ccc2nc(N3CCC(O)CC3)nc(Nc3cccc(C(F)(F)F)c3)c12`, the GI50 was 2.84 µM in the experiment on MCF7 breast, 12.2 µM in the experiment on MDA-MB-231 breast, 2.37 µM in the experiment on NCI/ADR-RES ovarian and 3.11 µM in the experiment on T-47D breast. The TGI in the experiment on MCF7 breast was 12.7 µM; with MDA-MB-231 breast, above 100 µM; in the experiment with NCI/ADR-RES ovarian, 7.33 µM; in the experiment with T-47D breast, 26.1 µM.

Consider `CCCN1CCN(c2ccc3nc(-c4ccc5nc(-c6cc(OC)ccc6OC)[nH]c5c4)[nH]c3c2)CC1`, for which the GI50 in the experiment on MCF7 breast was 1.8 µM; in the experiment with MDA-MB-231 breast, 1.74 µM; with NCI/ADR-RES ovarian it was 1.99 µM; in the experiment on T-47D breast, 21.6 µM. Further, the TGI in the experiment on MCF7 breast was found to be 3.82 µM; in the experiment on MDA-MB-231 breast, 3.27 µM; in the experiment with NCI/ADR-RES ovarian, 4.29 µM; with T-47D breast, 54.1 µM.

Consider `COc1cccc(-c2nc3sccn3c2-c2ccnc(NCCNS(=O)(=O)c3ccccc3)c2)c1`, for which the GI50 in the experiment with MCF7 breast was 3.14 µM; with MDA-MB-231 breast, 3.81 µM; with NCI/ADR-RES ovarian it was 2.66 µM; in the experiment on T-47D breast it was 0.776 µM. In addition, the TGI in the experiment with MCF7 breast is above 100 µM; in the experiment on MDA-MB-231 breast it was above 100 µM; in the experiment with NCI/ADR-RES ovarian it was 23.9 µM; with T-47D breast, 4.96 µM.

For the compound `Cc1cc(N2CCCC2)nc(NC2CCCC(Nc3ccnc4cc(Cl)ccc34)C2)n1` (configuration not stated), the GI50 in the experiment on MCF7 breast was 0.563 µM; in the experiment with NCI/ADR-RES ovarian, 1.78 µM; with T-47D breast, 1.71 µM. Moreover, the values for the TGI in the experiment with MCF7 breast, in the experiment with NCI/ADR-RES ovarian and with T-47D breast were 2.63 µM, 5.69 µM and 4.83 µM, respectively.

Turning to `O=C1c2cc([N+](=O)[O-])ccc2-c2cccc(F)c21`, the TGI with MCF7 breast was above 100 µM; in the experiment with MDA-MB-231 breast, above 100 µM; with MDA-N, above 100 µM; with NCI/ADR-RES ovarian it was above 100 µM; with T-47D breast, 66.1 µM.

For the compound `COc1ccc2c(CN3CCC[C@H]3C(=O)O)cc3cc4c(cc3c2c1)OCO4`, the GI50 in the experiment with MCF7 breast was 13.5 µM; in the experiment on MDA-MB-231 breast, 23.5 µM; in the experiment with NCI/ADR-RES ovarian it was 23.8 µM; in the experiment with T-47D breast it was 20 µM. Further, the TGI in the experiment with MCF7 breast was 62.3 µM; in the experiment with MDA-MB-231 breast, above 100 µM; in the experiment with NCI/ADR-RES ovarian, above 100 µM; in the experiment with T-47D breast, above 100 µM.

Take `Cc1cccc(Cl)c1NC(=O)/C=C/c1ccccc1`: the TGI in the experiment on MCF7 breast, in the experiment with MDA-MB-231 breast, with MDA-N and in the experiment on T-47D breast was above 100 µM each time.

Regarding `Cc1cc(-c2nnc(N)nc2-c2ccc(F)cc2)cc(Cl)n1`, the GI50 in the experiment with MCF7 breast is above 100 µM; in the experiment with MDA-MB-231 breast it was 70.2 µM; in the experiment with NCI/ADR-RES ovarian, 57.4 µM; with T-47D breast, 28.3 µM. Moreover, the TGI with MCF7 breast, in the experiment on MDA-MB-231 breast, with NCI/ADR-RES ovarian and in the experiment with T-47D breast was above 100 µM each time.

In the case of `COc1ccc2c(c1)OC1=C(C(=O)OC1)C2c1cc(OC)c(OC)c(OC)c1` (configuration not stated), the GI50 in the experiment with MCF7 breast is 0.35 µM; in the experiment with MDA-MB-231 breast, 1.3 µM; in the experiment on NCI/ADR-RES ovarian, 0.325 µM; with T-47D breast, 0.489 µM. Further, the TGI with MCF7 breast, in the experiment with MDA-MB-231 breast, with NCI/ADR-RES ovarian and with T-47D breast was above 100 µM in each case.

For the compound `C=CCN(CC=C)C(=O)c1cc(C)nc2c1c(=O)n(-c1ccccc1)c(=O)n2CC(O)CN1CCN(c2ncccn2)CC1` (configuration not stated), the GI50 is 33.3 µM in the experiment with MCF7 breast, above 100 µM in the experiment with MDA-MB-231 breast, above 100 µM with NCI/ADR-RES ovarian and above 100 µM with T-47D breast. Moreover, the TGI in the experiment on MCF7 breast, in the experiment on MDA-MB-231 breast, in the experiment on NCI/ADR-RES ovarian and in the experiment with T-47D breast was above 100 µM in each case.

Consider `O=C([O][Hg][CH2]C1COCC([CH2][Hg][O]C(=O)c2ccccc2)O1)c1ccccc1` (configuration not stated), for which the GI50 with MCF7 breast is 1.25 µM; with MDA-MB-231 breast, 19.4 µM; in the experiment on NCI/ADR-RES ovarian it was 21.1 µM. Further, the TGI with MCF7 breast is 14.2 µM; in the experiment on MDA-MB-231 breast it was 45.6 µM; with NCI/ADR-RES ovarian, 61.6 µM.

As for `C=CCC(C(=O)O)c1ccccc1` (configuration not stated), the TGI with MCF7 breast, in the experiment on MDA-MB-231 breast, in the experiment with MDA-N, with NCI/ADR-RES ovarian and in the experiment on T-47D breast was above 100 µM in each case.

As to `CC(C)CNc1nc(-c2ccccc2)nc2ccccc12`, the values for the GI50 in the experiment with MCF7 breast, with NCI/ADR-RES ovarian and in the experiment on T-47D breast were 18.6 µM, 13.4 µM and 21.6 µM, respectively. Moreover, the TGI was 44.4 µM in the experiment on MCF7 breast, 31.4 µM with NCI/ADR-RES ovarian and above 100 µM in the experiment on T-47D breast.

Regarding `O=CN1N=C(c2ccc(Cl)cc2)CC1c1cccc(Nc2ccnc3cc(Cl)ccc23)c1` (configuration not stated), the GI50 is 0.866 µM in the experiment on MCF7 breast, 2.74 µM with MDA-MB-231 breast, 0.784 µM in the experiment on NCI/ADR-RES ovarian and 0.817 µM in the experiment on T-47D breast. The TGI is 16 µM with MCF7 breast, 39.2 µM in the experiment with MDA-MB-231 breast, above 100 µM in the experiment on NCI/ADR-RES ovarian and 17.7 µM in the experiment on T-47D breast.

Turning to `Cc1ccc(-c2nc(N)nc3c2nnn3Cc2cccc(CO[C@H]3CCOC3)n2)o1`, the GI50 in the experiment with MCF7 breast, with MDA-MB-231 breast and in the experiment on NCI/ADR-RES ovarian was above 100 µM in each case. Also, the TGI in the experiment on MCF7 breast, in the experiment with MDA-MB-231 breast and with NCI/ADR-RES ovarian was above 100 µM throughout.

For `COc1cc(C(c2cc3c(cc2O)OCO3)N2CCCCC2)cc(OC)c1OC` (configuration not stated), the TGI in the experiment on MCF7 breast stood at 29.3 µM; in the experiment on MDA-MB-231 breast it was 29.3 µM; in the experiment with MDA-N, 19.8 µM; with NCI/ADR-RES ovarian, 39.2 µM; in the experiment with T-47D breast it was 47.8 µM.
